{"source": "patent US5010073A", "about": "“Use of liposomes as carriers for metalloporphyrins” (The Rockefeller University, priority 1990, dated 1991)", "key": {"[1]": {"settings": "cited from earlier work"}, "[2]": {"system": "bilirubin levels", "settings": "NEONATAL MONKEY; dose 24-185 umoles/kg; cited from earlier work"}, "[3]": {"system": "heme oxygenase", "settings": "rats, cited from earlier work"}, "[4]": {"system": "heme oxygenase", "assay": "Inhibition of splenic and hepatic heme oxygenase after injection", "format": "in vivo, rat", "settings": "single animal; for Heme Oxygenase activity Liver: saline 2.3 ± 0.6; for Heme Oxygenase activity Spleen: saline 9.0 ± 2.4", "description": "Liver were perfused in situ with ice cold 0.9% NaCl and subsequently homogenized in 3 volumes of 0.1 M potassium phosphate buffer, pH 7.4, containing 0.25 M sucrose. […] Splenic microsomes were prepared in an identical manner. The cytosolic fraction obtained from the liver of control (saline-injected) animals served as a source of bilirubin reductase for subsequent analysis of heme oxygenase activity. Assays for heme oxygenase and metalloporphyrin concentration were performed on fresh microsomes whenever possible. Otherwise, microsomal fractions were kept at liquid nitrogen temperatures until the time of assay.\nThe activity of heme oxygenase in tissues was determined as described by Drummond and Kappas, supra. […] Standard settings for the two metalloporphyrins examined were: […]\nThe rats were sacrificed at varying times after injection for measurements of hepatic and splenic heme oxygenase activity."}, "[5]": {"system": "bilirubin levels", "settings": "cited from earlier work"}, "[6]": {"system": "bilirubin levels", "settings": "cited from earlier work", "remark": "listed apart in the source"}, "[7]": {"system": "heme oxygenase", "assay": "Efficacy as heme oxygenase inhibitors (statements in words)", "settings": "at the same concentrations as SnPP"}, "[8]": {"assay": "Toxicity of chromium porphyrin preparations", "format": "in vivo", "settings": "aqueous: isotonic aqueous media at the same level as SnPP; liposomal: at effective dosage levels"}, "[9]": {"system": "plasma bilirubin levels", "assay": "Lowering plasma bilirubin levels in newborn animals", "format": "in vivo"}}, "note": "Where two headings read alike, the source gives them in different places."}
{"compound": "C=Cc1c2[n-]c(c1C)/C=c1\\[n-]/c(c(C)c1C=C)=C\\c1[n-]c(c(CCC(=O)O)c1C)/C=c1\\[n-]c(c(C)c1CCC(=O)O)=C2.[Sn+4]", "note": "[SnPP, tin protoporphyrin]", "values": [{"measurement": "CONCENTRATION OF SnPP IN ORGAN @ 24 HOURS, MICROSOMES", "setting": "[1]; LIVER, rats, intravenous", "value": "146-284 pm/mg. protein"}, {"measurement": "CONCENTRATION OF SnPP IN ORGAN @ 24 HOURS, MICROSOMES", "setting": "[1]; SPLEEN, rats, intravenous", "value": "60 -90 pm/mg. protein"}, {"measurement": "concentration of SnPP in the spleen relative to SnPP concentration in the liver", "setting": "[1]; rat, in vivo, iv", "value": "one-fourth"}, {"measurement": "concentration", "setting": "[1]; read-out: CONCENTRATION OF SnPP IN ORGAN @ 24 HOURS, HOMOGENATE, SPLEEN, rats, intravenous, Mean ± SE for 3-4 rats", "value": "6.5 ± 0.6", "unit": "µM"}, {"measurement": "BILIRUBIN/CO REDUCTION (percent)", "setting": "[2]", "value": 91, "unit": "%"}, {"measurement": "HEME OXYGENASE ACTIVITY 24 HOURS AFTER TREATMENT", "setting": "[3]; KIDNEY, prior to treatment 1.8 ± 0.2", "value": "0.6 ± 0.1 nm bilirubin/hr/mg. protein"}, {"measurement": "HEME OXYGENASE ACTIVITY 24 HOURS AFTER TREATMENT", "setting": "[3]; LIVER, prior to treatment 2.7 ± 0,3", "value": "0.3 ± 0.04 nm bilirubin/hr/mg. protein"}, {"measurement": "HEME OXYGENASE ACTIVITY 24 HOURS AFTER TREATMENT", "setting": "[3]; SPLEEN, prior to treatment 12.4 ± 0.4", "value": "2.3 ± 0.3 nm bilirubin/hr/mg. protein"}, {"measurement": "inhibition of splenic heme oxygenase", "setting": "[3]; following intravenous administration", "value": "50-75%"}, {"measurement": "Heme Oxygenase activity Liver", "setting": "[4]; 10 μm/kg IV, 16 hrs", "value": "0.6 nm bilirubin/hr/mg. protein"}, {"measurement": "Heme Oxygenase activity Spleen", "setting": "[4]; 10 μm/kg IV, 16 hrs", "value": "3.6 nm bilirubin/hr/mg. protein"}, {"measurement": "Heme Oxygenase activity Liver", "setting": "[4]; 10 μm/kg IV, 48 hrs", "value": "1.0 nm bilirubin/hr/mg. protein"}, {"measurement": "Heme Oxygenase activity Spleen", "setting": "[4]; 10 μm/kg IV, 48 hrs", "value": "5.9 nm bilirubin/hr/mg. protein"}, {"measurement": "Heme Oxygenase activity Liver", "setting": "[4]; 50 μm/kg IV, 16 hrs", "value": "0.4 nm bilirubin/hr/mg. protein"}, {"measurement": "Heme Oxygenase activity Spleen", "setting": "[4]; 50 μm/kg IV, 16 hrs", "value": "5.3 nm bilirubin/hr/mg. protein"}, {"measurement": "Heme Oxygenase activity Liver", "setting": "[4]; 50 μm/kg IV, 48 hrs", "value": "0.5 nm bilirubin/hr/mg. protein"}, {"measurement": "Heme Oxygenase activity Spleen", "setting": "[4]; 50 μm/kg IV, 48 hrs", "value": "6.3 nm bilirubin/hr/mg. protein"}, {"measurement": "BILIRUBIN/CO REDUCTION (percent)", "setting": "[5]; BILE DUCT LIGATED RAT, dose 100 umoles/kg", "value": "62-70%"}, {"measurement": "BILIRUBIN/CO REDUCTION (percent)", "setting": "[5]; NEONATAL GUNN RAT, dose 50 umoles/kg", "value": 19, "unit": "%"}, {"measurement": "BILIRUBIN/CO REDUCTION (percent)", "setting": "[5]; NEONATAL RAT/HEMATOMA, dose 65 umoles/kg", "value": 25, "unit": "%"}, {"measurement": "BILIRUBIN/CO REDUCTION (percent)", "setting": "[5]; NORMAL ADULT RAT, dose 10-50 umoles/kg", "value": "24-30%"}, {"measurement": "BILIRUBIN/CO REDUCTION (percent)", "setting": "[6]; ABO INCOMPATIBILITY-MAN, dose 0.5 umoles/kg", "value": "21-32%"}, {"measurement": "BILIRUBIN/CO REDUCTION (percent)", "setting": "[6]; BILIARY CIRRHOSIS-MAN, dose 0.25-2.0 umoles/kg", "value": "7-23%"}, {"measurement": "BILIRUBIN/CO REDUCTION (percent)", "setting": "[6]; GILBERT'S DISEASE-MAN, dose 0.5-1.8 umoles/kg", "value": "29-43%"}, {"measurement": "BILIRUBIN/CO REDUCTION (percent)", "setting": "[6]; NORMAL ADULT-MAN, dose 1-2 umoles/kg", "value": "38-47%"}]}
{"compound": "C=CC1=C(C)c2cc3[n-]c(cc4nc(cc5[n-]c(cc1n2)c(C)c5C=C)C(C)=C4CCC(=O)O)c(CCC(=O)O)c3C.[Zn+2]", "note": "[ZnPP, zinc protoporphyrin]", "values": [{"measurement": "efficacy as heme oxygenase inhibitor relative to SnPP", "setting": "[7]", "value": "relatively ineffective"}, {"measurement": "BILIRUBIN/CO REDUCTION (percent)", "setting": "[5]; NORMAL ADULT RAT, dose 4-40 umoles/kg (ZnPP)", "value": "20-30%"}]}
{"compound": "chromium protoporphyrin [CrPP]", "values": [{"measurement": "toxicity", "setting": "[8]", "value": "exhibits some toxicity"}, {"measurement": "BILIRUBIN/CO REDUCTION (percent)", "setting": "[5]; NEONATAL RAT, dose 10 umoles/kg (CrPP)", "value": 32, "unit": "%"}]}
{"compound": "C=CC1=C(C)c2cc3[n-]c(cc4[n-]c(cc5nc(cc1n2)C(C)=C5C=C)c(C)c4CCC(=O)[O-])c(CCC(=O)[O-])c3C.[H+].[H+].[Mn+2]", "note": "[MnPP, manganese protoporphyrin]", "values": [{"measurement": "lowering plasma bilirubin levels", "setting": "[9]", "value": "ineffective"}]}
